Assays:
Type in all cases: biochemical
[1] = biological target: T1, LRRK2 WT (Homo sapiens, UniProt Q5S007); test: In vitro kinase assay: LRRK2 autophosphorylation; settings: for IC50: Table 2, mean of three experiments; for LRRK2 autophosphorylation Average ± SEM: compound 16 μM, phosphorylation normalized to absence of compound, mean ± S.E.M. of three experiments; for effect on WT LRRK2 autophosphorylation: dose-response; for effect on LRRK2 autophosphorylation: screen at 16 μM
[2] = biological target: T1, LRRK2 WT; test: In vitro kinase assay: LRRK2-mediated MBP phosphorylation; settings: for IC50: mean of three experiments; for MBP phosphorylation Average ± SEM: compound 16 μM, 30° C., 15 min, normalized to absence of compound, mean ± S.E.M. of three experiments; for effect on WT LRRK2 MBP phosphorylation: dose-response; for effect on LRRK2-mediated phosphorylation of MBP: screen at 16 μM
[3] = biological target: LRRK2 G2019S (Homo sapiens, UniProt Q5S007, G2019S); test: In vitro kinase assay: G2019S LRRK2-mediated MBP phosphorylation; settings: for IC50: Table 2, mean of three experiments; for effect on G2019S LRRK2 MBP phosphorylation: dose-response
Experimental: Transfection was performed by using Fugene HD reagent (Roche Applied Science) according to the manufacturer's instruction. For purification of recombinant LRRK1 and LRRK2 proteins, ACTA Purifier (GE Healthcare) FPLC system was used.
Resulting lysates were rotated at 4° C. for 30 min followed by centrifugation at 20,000×g for 15 min. The supernatants were injected into a GSTrap FF column pre-equilibrated with PBS at 0.5. mL/min flow after filtration using a 0.2 μm syringe filter (Corning). The bound proteins were eluted with buffer containing 10 mM GSH (Sigma), 150 mM NaCl, and 50 mM Tris-HCl (pH 8.0).
The in vitro kinase assay was performed as previously described. […] Recombinant LRRK2 and MBP or CST-4E-BP1 were combined before the kinase reaction. LRRK2 autophosphorylation is LRRK2 itself phosphorylation and MBP or GST-4E-BP1 phosphorylation is induced by LRRK2. After the kinase reaction, combined LRRK2 and MBP or GST-4E-BP1 were loaded on SDSPAGE and phosphorylated LRRK2 and MBP or GST-4E-BP1 could be detected separately an a single gel. Recombinant proteins and inhibitors were incubated at 30° C. in kinase assay buffer containing 20 mM Hepes (pH 7.4), 5 mM EGTA, and 20 mM β-glycerol phosphate. 0.5 μg MBP (Upstate) or 0.5 μg GST-4B-BP1, 50 μM ATP (Sigma), 20 mM MgCl2, and 1 μCi [γ-32P] ATP (PerkinElmer) was added after 5 min. The reaction was performed at 30° C. to reduce non-specific 32P incorporation for 15 min and terminated by the addition of 5×Laemmili sample buffer. […] Gels were stained by coomassie brilliant blue after fixation with 10% acetic acid and 40% methanol and then exposed to a Phosphoimager. Data were analyzed by ImageQuant 6.0 software.
To calculate the IC50 value, a dose-response curve was constructed and non-linear regression analysis using the equation for a sigmoid plot.

[4] = biological target: T2, LRRK1 WT (Homo sapiens, UniProt Q38SD2); test: In vitro kinase assay: LRRK1 autophosphorylation; settings: for IC50: Table 3, mean of three experiments
[5] = biological target: T2, LRRK1 WT; test: In vitro kinase assay: LRRK1-mediated MBP phosphorylation; settings: for IC50: Table 3, mean of three experiments
[6] = biological target: G2019S LRRK2 (Homo sapiens, UniProt Q5S007, G2019S); test: In vitro kinase assay: LRRK2-mediated phosphorylation of 4E-BP1
Experimental: The GST-4E-BP1 expressing vector was generated using the Invitrogen Gateway LR Clonase System. Briefly, an entry clone containing the 4E-BP1 sequence was reacted with the destination vector, pDEST-15 in the presence of the LR clonase mixture. After the clonase reaction, the mixture was transformed into One Shot BL21 chemically competent E. coli. The transformed cells were grown on ampicillin containing LB agar plate for one day at 37° C. Colonies containing GST-4E-BP1 were isolated. For protein induction, 100 μM IPTG was added to 100 mL culture and incubated for 3 h at 30° C. After IPTG incubation, cells were collected by centrifugation at 3,000×g for 15 min. The pellet was lysed with sonication in the presence of lysis butter containing 0.5% TX-100, 50 mM Tris-HCl (pH 8.0), 100 mM NaCl, 0.5 mM EGTA, 5 mM MgCl2, 2 mM DTT, and complete protease inhibitors. The lysate was centrifugated at 15,000×g for 15 min and the supernatant was incubated with GSH-sepharose beads for 2 h at 4° C. After incubation, the beads were washed with PBS containing an additional 150 mM NaCl and 0.1% TX-100 three times. The protein was eluted with elution buffer containing Hepes (pH 8.0), 150 mM NaCl, 30% glycerol, and 30 mM glutathione. The eluted proteins were stored at −80° C.
The in vitro kinase assay was performed as previously described. West, A. B. et al. Parkinson's disease-associated mutations in leucine-rich repeat kinase 2 augment kinase activity. Proc Natl Acad Sci USA 102, 16842-16847 (2005). Recombinant LRRK2 and MBP or CST-4E-BP1 were combined before the kinase reaction. LRRK2 autophosphorylation is LRRK2 itself phosphorylation and MBP or GST-4E-BP1 phosphorylation is induced by LRRK2. After the kinase reaction, combined LRRK2 and MBP or GST-4E-BP1 were loaded on SDSPAGE and phosphorylated LRRK2 and MBP or GST-4E-BP1 could be detected separately an a single gel. Recombinant proteins and inhibitors were incubated at 30° C. in kinase assay buffer containing 20 mM Hepes (pH 7.4), 5 mM EGTA, and 20 mM β-glycerol phosphate. 0.5 μg MBP (Upstate) or 0.5 μg GST-4B-BP1, 50 μM ATP (Sigma), 20 mM MgCl2, and 1 μCi [γ-32P] ATP (PerkinElmer) was added after 5 min. The reaction was performed at 30° C. to reduce non-specific 32P incorporation for 15 min and terminated by the addition of 5×Laemmili sample buffer. The reactions were then heated at 70° C. for 10 min and resolved by 12% SDS-PAGE. Gels were stained by coomassie brilliant blue after fixation with 10% acetic acid and 40% methanol and then exposed to a Phosphoimager. Data were analyzed by ImageQuant 6.0 software.

T2 sequence (Q38SD2 whole entry): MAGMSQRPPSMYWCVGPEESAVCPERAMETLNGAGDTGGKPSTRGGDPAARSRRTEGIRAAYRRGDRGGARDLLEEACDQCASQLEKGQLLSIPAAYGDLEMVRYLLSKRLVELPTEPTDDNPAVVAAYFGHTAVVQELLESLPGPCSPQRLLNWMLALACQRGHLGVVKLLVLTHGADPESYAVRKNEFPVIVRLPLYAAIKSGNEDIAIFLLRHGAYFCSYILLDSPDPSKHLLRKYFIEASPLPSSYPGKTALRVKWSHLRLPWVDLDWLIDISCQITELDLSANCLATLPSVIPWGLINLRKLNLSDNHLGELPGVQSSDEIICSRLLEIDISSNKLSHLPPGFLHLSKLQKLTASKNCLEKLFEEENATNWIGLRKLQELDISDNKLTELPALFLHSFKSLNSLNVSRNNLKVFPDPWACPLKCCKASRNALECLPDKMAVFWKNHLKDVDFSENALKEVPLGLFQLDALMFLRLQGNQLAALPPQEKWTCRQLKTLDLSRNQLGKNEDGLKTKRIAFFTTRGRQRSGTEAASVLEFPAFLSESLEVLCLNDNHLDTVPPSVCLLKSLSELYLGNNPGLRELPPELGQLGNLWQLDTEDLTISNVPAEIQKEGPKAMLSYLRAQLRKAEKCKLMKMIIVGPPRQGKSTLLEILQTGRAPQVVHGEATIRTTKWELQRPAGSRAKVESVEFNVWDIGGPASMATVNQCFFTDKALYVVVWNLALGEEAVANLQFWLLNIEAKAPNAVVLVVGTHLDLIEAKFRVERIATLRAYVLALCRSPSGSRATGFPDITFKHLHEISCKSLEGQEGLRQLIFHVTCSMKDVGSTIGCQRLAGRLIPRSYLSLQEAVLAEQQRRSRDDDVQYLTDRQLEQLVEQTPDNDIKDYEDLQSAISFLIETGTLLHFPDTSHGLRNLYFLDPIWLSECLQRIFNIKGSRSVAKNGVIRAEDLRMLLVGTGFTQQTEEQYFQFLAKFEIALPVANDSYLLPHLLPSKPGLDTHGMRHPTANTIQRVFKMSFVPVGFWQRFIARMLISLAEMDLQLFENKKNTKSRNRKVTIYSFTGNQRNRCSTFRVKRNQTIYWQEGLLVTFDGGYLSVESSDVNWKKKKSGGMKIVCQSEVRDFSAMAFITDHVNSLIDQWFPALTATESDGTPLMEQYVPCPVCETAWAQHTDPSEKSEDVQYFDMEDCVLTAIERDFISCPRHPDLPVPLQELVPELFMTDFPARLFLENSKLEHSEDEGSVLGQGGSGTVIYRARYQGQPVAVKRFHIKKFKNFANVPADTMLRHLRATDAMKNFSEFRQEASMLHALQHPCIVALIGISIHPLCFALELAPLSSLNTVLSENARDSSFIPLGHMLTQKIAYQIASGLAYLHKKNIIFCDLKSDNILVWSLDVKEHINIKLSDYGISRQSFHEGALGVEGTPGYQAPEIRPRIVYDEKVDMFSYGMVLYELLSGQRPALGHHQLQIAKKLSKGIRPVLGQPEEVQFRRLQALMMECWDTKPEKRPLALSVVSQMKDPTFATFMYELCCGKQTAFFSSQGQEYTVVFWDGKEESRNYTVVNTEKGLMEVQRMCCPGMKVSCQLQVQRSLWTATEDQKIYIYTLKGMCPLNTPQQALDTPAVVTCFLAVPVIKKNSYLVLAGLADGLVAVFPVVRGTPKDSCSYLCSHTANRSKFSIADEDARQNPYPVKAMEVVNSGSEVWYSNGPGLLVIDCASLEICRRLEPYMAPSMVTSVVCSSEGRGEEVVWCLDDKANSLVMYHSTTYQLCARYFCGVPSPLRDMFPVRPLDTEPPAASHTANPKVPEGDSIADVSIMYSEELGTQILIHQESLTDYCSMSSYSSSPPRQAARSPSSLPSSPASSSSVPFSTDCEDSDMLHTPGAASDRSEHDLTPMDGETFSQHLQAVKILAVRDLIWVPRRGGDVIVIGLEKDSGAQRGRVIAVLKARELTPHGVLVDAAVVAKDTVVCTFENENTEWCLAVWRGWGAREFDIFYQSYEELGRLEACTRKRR
T1 sequence (Q5S007 whole entry): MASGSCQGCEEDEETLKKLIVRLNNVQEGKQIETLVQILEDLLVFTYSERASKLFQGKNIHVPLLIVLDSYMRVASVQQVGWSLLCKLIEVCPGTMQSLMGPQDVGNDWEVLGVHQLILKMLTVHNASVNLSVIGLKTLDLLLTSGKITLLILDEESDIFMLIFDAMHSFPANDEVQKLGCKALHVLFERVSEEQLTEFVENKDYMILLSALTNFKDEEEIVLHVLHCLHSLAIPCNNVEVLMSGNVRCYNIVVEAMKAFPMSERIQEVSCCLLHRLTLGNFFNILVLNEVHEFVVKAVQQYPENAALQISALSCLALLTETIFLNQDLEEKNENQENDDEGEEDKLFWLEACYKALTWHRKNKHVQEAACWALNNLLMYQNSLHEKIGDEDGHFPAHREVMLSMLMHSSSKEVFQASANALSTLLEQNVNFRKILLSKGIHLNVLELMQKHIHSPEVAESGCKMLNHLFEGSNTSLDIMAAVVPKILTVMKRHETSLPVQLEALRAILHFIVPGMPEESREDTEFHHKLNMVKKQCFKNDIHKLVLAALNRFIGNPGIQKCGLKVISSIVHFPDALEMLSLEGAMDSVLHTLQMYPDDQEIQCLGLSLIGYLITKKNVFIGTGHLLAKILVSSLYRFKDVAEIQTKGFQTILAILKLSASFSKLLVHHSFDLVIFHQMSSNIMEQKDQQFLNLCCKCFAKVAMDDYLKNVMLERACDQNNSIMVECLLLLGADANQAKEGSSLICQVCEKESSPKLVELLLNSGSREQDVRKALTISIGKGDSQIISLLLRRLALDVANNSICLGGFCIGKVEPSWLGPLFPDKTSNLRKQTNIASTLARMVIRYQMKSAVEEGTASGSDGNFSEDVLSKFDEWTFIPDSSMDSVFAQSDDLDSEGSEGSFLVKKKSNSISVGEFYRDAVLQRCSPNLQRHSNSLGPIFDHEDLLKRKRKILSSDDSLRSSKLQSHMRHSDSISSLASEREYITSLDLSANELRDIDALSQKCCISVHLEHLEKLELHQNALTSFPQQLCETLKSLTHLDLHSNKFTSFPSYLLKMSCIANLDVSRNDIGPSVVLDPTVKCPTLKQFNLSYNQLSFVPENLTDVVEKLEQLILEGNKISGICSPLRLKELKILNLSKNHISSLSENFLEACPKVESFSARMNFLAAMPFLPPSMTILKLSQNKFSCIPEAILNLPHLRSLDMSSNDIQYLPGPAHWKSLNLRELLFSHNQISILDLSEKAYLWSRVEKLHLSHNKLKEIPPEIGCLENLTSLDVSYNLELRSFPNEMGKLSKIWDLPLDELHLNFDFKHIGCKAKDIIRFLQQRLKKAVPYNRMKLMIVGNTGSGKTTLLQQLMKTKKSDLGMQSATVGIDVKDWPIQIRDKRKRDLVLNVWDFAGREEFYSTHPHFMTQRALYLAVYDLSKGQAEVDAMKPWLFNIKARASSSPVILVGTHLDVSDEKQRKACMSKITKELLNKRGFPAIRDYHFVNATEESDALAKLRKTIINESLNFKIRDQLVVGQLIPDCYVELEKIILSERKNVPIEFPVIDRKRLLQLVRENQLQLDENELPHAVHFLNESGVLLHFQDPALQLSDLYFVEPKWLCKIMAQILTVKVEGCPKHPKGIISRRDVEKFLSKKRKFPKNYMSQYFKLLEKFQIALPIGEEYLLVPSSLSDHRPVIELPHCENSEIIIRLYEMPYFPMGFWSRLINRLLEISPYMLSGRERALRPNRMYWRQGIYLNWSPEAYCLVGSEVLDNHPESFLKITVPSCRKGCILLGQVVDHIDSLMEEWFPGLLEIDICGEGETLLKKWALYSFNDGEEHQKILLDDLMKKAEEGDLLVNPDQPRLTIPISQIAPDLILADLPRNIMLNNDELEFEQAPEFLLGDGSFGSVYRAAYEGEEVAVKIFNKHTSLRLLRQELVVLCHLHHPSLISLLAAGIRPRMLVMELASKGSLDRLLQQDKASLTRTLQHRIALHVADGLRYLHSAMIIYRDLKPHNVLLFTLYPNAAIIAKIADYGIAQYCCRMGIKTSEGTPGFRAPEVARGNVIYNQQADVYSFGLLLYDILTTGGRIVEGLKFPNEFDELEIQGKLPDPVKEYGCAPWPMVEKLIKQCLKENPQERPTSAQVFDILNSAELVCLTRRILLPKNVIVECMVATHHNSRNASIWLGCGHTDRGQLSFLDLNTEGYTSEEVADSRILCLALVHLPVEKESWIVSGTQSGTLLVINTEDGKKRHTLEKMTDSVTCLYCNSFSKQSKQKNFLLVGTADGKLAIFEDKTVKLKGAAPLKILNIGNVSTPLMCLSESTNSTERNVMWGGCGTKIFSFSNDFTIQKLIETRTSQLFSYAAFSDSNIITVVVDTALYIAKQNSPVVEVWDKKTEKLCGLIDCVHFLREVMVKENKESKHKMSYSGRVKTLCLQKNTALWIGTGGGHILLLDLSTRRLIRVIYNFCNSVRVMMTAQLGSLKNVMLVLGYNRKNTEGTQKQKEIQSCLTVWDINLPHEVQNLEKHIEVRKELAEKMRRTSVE
Chain of LRRK2 G2019S (Q5S007 whole entry G2019S): as the sequence (Q5S007 whole entry) above, with G2019S counted along it
Chain of G2019S LRRK2 (Q5S007 whole entry G2019S): as the sequence (Q5S007 whole entry) above, with G2019S counted along it

SMILES | IC50 [1] [nM] | LRRK2 autophosphorylation Average ± SEM [1] | effect on WT LRRK2 autophosphorylation [1] | effect on LRRK2 autophosphorylation [1] | IC50 ([2]; Table 2) [nM] | IC50 ([2]; Table 3) [nM] | MBP phosphorylation Average ± SEM [2] | effect on WT LRRK2 MBP phosphorylation [2] | effect on LRRK2-mediated phosphorylation of MBP [2] | IC50 [3] [nM] | effect on G2019S LRRK2 MBP phosphorylation [3] | effect on LRRK1 autophosphorylation [4] | IC50 [4] [nM] | effect on LRRK1 MBP phosphorylation [5] | IC50 [5] [nM] | LRRK2-mediated phosphorylation of 4E-BP1 [6]
O=C1Nc2ccccc2/C1=C1/Nc2ccccc2/C1=N\O [Inhibitor 70, Indirubin-3-monooxine] | 1750 | 6.0 ± 6.5 % of control | inhibited | substantially inhibited | 4830 | 4830 | 33.1 ± 15.7 % of control | inhibited | substantially inhibited | 1310 | inhibited | inhibited | 790 | inhibited | 3100 | inhibited
Cc1ccc(NC(=O)c2cccc(N(C)C)c2)cc1NC(=O)c1ccc(O)cc1 [Inhibitor 53, ZM336372] |  |  | no effect |  |  |  |  | no effect |  |  | no effect | minimal to no effect |  | minimal to no effect |  | did not inhibit
O=C1Nc2ccc(I)cc2/C1=C/c1cc(Br)c(O)c(Br)c1 [Inhibitor 56, GW5074] | 880 | 4.6 ± 2.9 % of control |  | substantially inhibited | 3150 | 1090 | 4.7 ± 4.1 % of control |  | substantially inhibited | 880 |  |  | 730 |  | 3250 | inhibited

Source: US20150018301A1, “LRRK-2-Mediated Neuronal Toxicity” (THE JOHNS HOPKINS UNIVERSITY, priority 2009, published 2015)
